Measured values reported in patent US8748180B2, “Microfluidic device for pharmacokinetic-pharmacodynamic study of drugs and uses thereof” (Cornell University, priority 2009, dated 2014).

Tests used:
[1] = system: dihydropyrimidine dehydrogenase (DPD); conditions: PK model parameter; calculated from rate of metabolism in a rat and reported liver protein content and cell number; cited from earlier work
HCT-116 [2] = assay: Toxicity experiment in static conditions, hydrogel-encapsulated cells, Trypan-blue viability, PD model fit; assay type: cell-based; conditions: Homo sapiens, HCT-116, 72 h, 5-FU 0, 0.1, 0.2, 0.5 mM, three days, read-out: KC50 (drug concentration where half of the maximum rate is observed), fitted PD parameter
Description: (§1) For static condition experiment, the same silicone gaskets were prepared on a glass slide, similar to the μCCA. Cells were seeded into the holes, encapsulated in hydrogel, and […] of cell culture medium were placed on top. This volume is same as the volume of medium placed in the reservoir of a μCCA. Therefore, cells in static conditions are essentially the same as the cells in a μCCA, except that the device was not assembled with the channel layer, and cells were immersed in liquid medium. Cell viability was assessed using the same method as a μCCA.

Kasumi-1 [3] = assay: as above; assay type: cell-based; conditions: Homo sapiens, Kasumi 1, 72 h, 5-FU 0, 0.1, 0.2, 0.5 mM, three days, read-out: KC50 (drug concentration where half of the maximum rate is observed), fitted PD parameter
Description: as §1

HepG2/C3A [4] = assay: as above; assay type: cell-based; conditions: three days
Description: as §1

HepG2/C3A [5] = assay: Toxicity in three-chamber μCCA (dynamic conditions), Trypan-blue viability, PK-PD model fit; conditions: both static and dynamic conditions; lower Kmax or higher KC50
Description: (§2) The device was placed on a rocking platform, set to change direction at approximately every 3 min.
(§3) The whole system was placed inside a cell culture incubator with 5% CO2. After a specified amount of time, the device was dissembled and cells were retrieved by dissolving the alginate in a dissolving buffer (55 mM sodium citrate, 30 mM EDTA, 0.15M NaCl) for 30 min at 37° C., or from […] ® by dissolving in DPBS with 5 mM EDTA solution at 4° C. Cell viability was determined by Trypan-blue exclusion assay using a hemocytometer. At least triplicates were done for each data point.
(§4) An integrated PK-PD model was developed by constructing a PK and PD model separately, and then combining the two. A PK model has the same layout of compartments as a μCCA device. A PD model is integrated into each compartment, describing the kinetics of cell death in each organ. To construct a PK model for a μCCA, mass balance equations describing the flow in, flow out, and metabolism were set up for each compartment, and the ordinary differential equations (ODEs) were solved numerically. Solving the equations required several parameters, such as physiological parameters (flow rate and size of chambers) and enzyme kinetic parameters for the metabolism of 5-FU and uracil, which are summarized in Table 1. […]

[6] = previous clinical findings; cited from earlier work
[7] = system: HepG2/C3A, HCT-116 and Kasumi-1 cells; assay: μCCA viability of three cell lines, 5-FU alone vs 5-FU plus uracil (uracil as modulator)
Description: The device was assembled by sandwiching a cell culture chamber layer and a fluidic channel layer between an aluminum bottom frame and a PLEXIGLAS® top frame. A silicone gasket and a polycarbonate base were added to ensure better sealing. […] The device was placed on a rocking platform, set to change direction at approximately every 3 min.
as §3
The effect of uracil as a modulator of 5-FU toxicity was tested by comparing the responses of cells to 5-FU plus uracil and 5-FU alone. […] Cells were also encapsulated in a different hydrogel, […] ®, in a μCCA.

HCT-116 [8] = assay: Toxicity in three-chamber μCCA (dynamic conditions), Trypan-blue viability, PK-PD model fit; conditions: three days
Description: as §2, §3, §4

Kasumi-1 [9] = assay: as above; conditions: three days
Description: as §2, §3, §4

Compound | Maximum rate of metabolism (Vm) [1] | EC50 (HCT-116 [2]) | EC50 (Kasumi-1 [3]) | EC50 (HepG2/C3A [4]; HepG2/C3A, 72 h, 5-FU 0, 0.1, 0.2, 0.5 mM, read-out: KC50 (drug concentration where half of the maximum rate is observed), fitted PD parameter) | Drop in viability compared with other cell types (HepG2/C3A [4]) | Resistance to 5-FU compared with other two cell types (HepG2/C3A [5]) | Dose-limiting toxicity [6] | Sensitivity of cells to 5-FU in dynamic conditions versus static conditions [7] | Sensitivity to 5-FU treatment compared with hepatoma (HepG2/C3A) cell line (HCT-116 [8]) | Sensitivity to 5-FU treatment compared with hepatoma (HepG2/C3A) cell line (Kasumi-1 [9])
O=c1cc[nH]c(=O)[nH]1 [uracil] | 1695 nmol/min/mL | – | – | – | – | – | – | – | – | –
O=c1[nH]cc(F)c(=O)[nH]1 [5-FU, 5-fluorouracil] | 2385 nmol/min/mL | 8.61 mM | 7.41 mM | 5.52 mM | slower drop in the viability | most resistant | hematological toxicity | more sensitive | much more sensitive | much more sensitive
